US20170298055A1, “sGC STIMULATORS” (IRONWOOD PHARMACEUTICALS, INC., priority 2014, published 2017)
Like-named read-outs stand apart in the source and are kept apart here. Values belong to the compound of their own block, whether it stands above or below them.

Tests used:
[1] = molecular target: T1, soluble guanylate cyclase (sGC) (Homo sapiens, UniProt Q02108+Q02153); assay: sGC-HEK-cGMP assay, LC/MS detection, with SNP incubation (Example 2A); assay type: cell-based; conditions: HEK293 cells, in the presence of 10 μM SNP
T1 construct: endogenously expressing soluble guanylate cyclase (sGC); endogenous in cells; host or cells: HEK293
T1 sequence (Q02153 1-619): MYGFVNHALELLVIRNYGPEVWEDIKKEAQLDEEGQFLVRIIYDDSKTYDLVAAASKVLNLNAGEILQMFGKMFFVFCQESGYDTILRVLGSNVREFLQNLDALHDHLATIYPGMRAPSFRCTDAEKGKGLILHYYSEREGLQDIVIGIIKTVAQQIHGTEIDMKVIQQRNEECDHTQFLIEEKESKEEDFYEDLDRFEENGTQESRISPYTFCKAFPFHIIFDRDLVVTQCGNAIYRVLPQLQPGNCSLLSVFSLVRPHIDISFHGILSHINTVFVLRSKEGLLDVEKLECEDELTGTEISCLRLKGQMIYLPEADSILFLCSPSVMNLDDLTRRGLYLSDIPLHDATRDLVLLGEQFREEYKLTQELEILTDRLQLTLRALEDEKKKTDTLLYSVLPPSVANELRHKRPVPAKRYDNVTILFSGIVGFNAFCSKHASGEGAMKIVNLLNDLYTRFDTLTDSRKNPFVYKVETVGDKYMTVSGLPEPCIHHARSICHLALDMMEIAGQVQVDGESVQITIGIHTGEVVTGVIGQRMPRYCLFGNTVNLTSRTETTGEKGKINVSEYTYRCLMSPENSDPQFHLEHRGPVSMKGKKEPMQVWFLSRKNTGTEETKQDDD
T1 sequence (Q02108 1-690): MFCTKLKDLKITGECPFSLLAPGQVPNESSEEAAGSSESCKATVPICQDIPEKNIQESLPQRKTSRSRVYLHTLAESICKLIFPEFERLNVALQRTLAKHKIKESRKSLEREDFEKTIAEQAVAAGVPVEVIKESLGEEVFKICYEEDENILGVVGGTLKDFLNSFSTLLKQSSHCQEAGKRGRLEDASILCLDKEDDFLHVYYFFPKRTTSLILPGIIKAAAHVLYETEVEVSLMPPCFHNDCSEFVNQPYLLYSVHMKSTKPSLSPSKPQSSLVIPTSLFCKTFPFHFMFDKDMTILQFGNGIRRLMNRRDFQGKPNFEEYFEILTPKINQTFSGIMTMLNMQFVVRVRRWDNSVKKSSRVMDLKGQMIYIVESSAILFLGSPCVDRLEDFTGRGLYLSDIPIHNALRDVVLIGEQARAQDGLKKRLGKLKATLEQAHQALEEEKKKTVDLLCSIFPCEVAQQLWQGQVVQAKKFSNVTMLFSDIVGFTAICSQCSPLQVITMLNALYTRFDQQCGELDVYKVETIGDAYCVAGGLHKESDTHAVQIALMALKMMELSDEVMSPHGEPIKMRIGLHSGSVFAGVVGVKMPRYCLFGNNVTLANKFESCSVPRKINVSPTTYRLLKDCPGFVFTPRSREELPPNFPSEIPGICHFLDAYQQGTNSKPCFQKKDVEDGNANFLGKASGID
Experimental: Human embryonic kidney cells (HEK293), endogenously expressing soluble guanylate cyclase (sGC), were used to evaluate the activity of test compounds. Compounds stimulating the sGC receptor should cause an increase in the intracellular concentration of cGMP. HEK 293 cells were seeded in Dulbecco's Modification of Eagle's Medium supplemented with fetal bovine serum (10% final) and L-glutamine (2 mM final) in a 200 μL volume at a density of 1×10^5 cells/well in a poly-D-lysine coated 96 well flat bottom plate and grown overnight at 37° C. Medium was aspirated and cells were washed with 1× Hank's Buffered Saline Salt Solution (200 μL). Cells were then incubated for 15 minutes at 37° C. with 0.5 mM 3-isobutyl-1-methylxanthine (200 μL). Test article and sodium nitroprusside were then added to the assay mixture (2 μL each) and incubated at 37° C. for 10 minutes. After the 10 minute incubation, the assay mixture was aspirated and 0.1M HCl (200 μL) was added to the cells. The plate was incubated at 4° C. for 30 minutes in the 0.1M HCl to stop the reaction and lysed the cells. The plates were then centrifuged at 1,200 g for 5 minutes at room temperature. Supernatants were collected and transferred to a new flat bottom 96 well plate for analysis. Vehicle controls were carried out using DMSO (1%). A known sGC stimulator, BAY 41-2272, was used as the positive control. Samples were diluted with an equal volume of 1 M Ammonium Acetate (pH 7) to neutralize samples for better chromatography. A 2× cGMP standard curve was prepared in 0.1 M HCl and then diluted with an equal volume of 1 M Ammonium Acetate, with the following final concentrations in nM: 1024, 512, 256, 128, 64, 32, 16, 8, 4, 2, 1. cGMP concentrations were determined from each sample using the LC/MS conditions (Table 2 below) and calculated standard curve. EC50 values were calculated from concentration-response curves generated with GraphPad Prism Software.

[2] = test system: lambs with acute pulmonary hypertension; conditions: cited from earlier work; for effect on mean arterial pressure / pulmonary vasodilation / transpulmonary cGMP release / systemic arterial oxygenation: inhaled microparticles, awake lambs; for effect on mean arterial pressure / pulmonary vasodilation / transpulmonary cGMP release: U-46619 infusion
sGC enzyme = molecular target: T2, sGC enzyme (Homo sapiens, UniProt Q02108+Q02153); assay: cGMP GloSensor cell-based assay, 384-well format (Example 2C); conditions: read-out: sGC_HEK_GloSensor EC50/IC50 Abs (Norm) (nM) Binned
T2 construct: host or cells: HEK293 cells stably expressing GloSensor 40F cGMP biosensor
T2 sequence (Q02153 1-619): T1 sequence (Q02153 1-619)
T2 sequence (Q02108 1-690): T1 sequence (Q02108 1-690)
Excerpt: Human embryonic kidney cells (HEK293) cells expressing GloSensor™ 40F cGMP (Part No: CS182801, Promega) were used to evaluate the activity of test compounds. The luminescent biosensors (engineered luciferase) that were incorporated into these cells detect cGMP formed by the compounds stimulating the sGC enzyme and emit luminescence.
cGMP GloSensor cells were maintained in Dulbecco's Modification of Eagle's Medium (DMEM) supplemented with fetal bovine serum (FBS) (10% final) and hygromycine (200 ug/ml). The day before assay, cells were plated in DMEM with 10% FBS in a 50 μL volume at a density of 1.5×10^4 cells/well in a poly-D-lysine coated 384-well flat white-bottom plate (Corning Cat No 35661). Cells were incubated overnight at 37° C. in a humidified chamber with 5% CO2. The next day, medium was removed and cells were replaced with 40 ul/well of GloSensor™, 2 mM (Promega Cat No E1291). Cells were treated for 90 minutes at 25° C. to allow the substrate to equilibrate in the cells. Test compounds and Diethylenetriamine NONOate (DETA-NONOate) was diluted to 3 mM (20×) in serum-free CO2 independent medium and serally diluted at 4× dilutions to create 5× dose curve from which 10 ul was added to the wells (x μM concentration for test compound solution and 10 μM concentration for DETA-NONOate solution; wherein x is one of the following final concentrations).
For the kinetics studies, luminescense was measured right away for 0.2 sec per well with Envision (Perkin Elmer model No). For endpoint SAR screening, data were collected after 55 min incubation at room temperature.
Data analysis was carried out as indicated above in Example 2C.

[3] = molecular target: T3, human recombinant soluble guanylate cyclase enzyme α1β1 (Homo sapiens, UniProt Q02108+Q02153); assay: Purified human recombinant sGC α1β1 enzyme assay with DETA-NONOate, cGMP HTRF (Example 5); assay type: biochemical; conditions: 30 uM DETA NONOate, 50% of maximal response of 30 uM Compound Y, read-out: sGC_Enz_HTRF_a1b1 EC50/IC50 Abs (Norm) (nM) Binned
T3 construct: purchased Enzo Life Sciences ALX-201-177
T3 sequence (Q02153 1-619): T1 sequence (Q02153 1-619)
T3 sequence (Q02108 1-690): T1 sequence (Q02108 1-690)
Experimental: Purified human recombinant soluble guanylate cyclase enzyme α1β1 (h sGC) obtained from Enzo Life Sciences (P/N: ALX-201-177) was used to evaluate the activity of test compounds. The assay reactions contained 0.1 M Tris (pH 8.0), 0.5 mg/mL BSA, 2 mM DTT, 4 mM MgCl2, 30 uM DETA NONOate (Enzo Life Science P/N: ALX-430-014), and 12.5 ng/ml human soluble guanylate cyclase enzyme. […] Guanosine 5′-triphosphate (Sigma-Aldrich P/N: G8877) was added to a final concentration of 300 μM and enzyme reactions were incubated (100 μL, 384-well plate format) at 37° C. for 20 minutes. The controls contained 3% DMSO (low control), or 30 uM of Compound Y (high control). After the 20 minute incubation, the reaction was stopped with the addition of 100 μL of ice cold 20% acetic acid.
cGMP concentrations in all samples were determined using the cGMP HTRF (Cisbio P/N: 62GM2PEC) assay per manufacturer's instructions. A cGMP standard curve was fit using a 4-parameter fit (log(inhibitor) vs. response variable slope) using GraphPad Prism Software v.6. Samples were diluted appropriately to ensure that values fell within the linear range of the standard curve.
Data were fit using a 4-parameter fit (log(agonist) vs. response variable slope) using GraphPad Prism Software v.6.

[4] = top of concentration-response curve not fitted to 100%, read-out: sGC_HEK_LCMS uEC50 (nM) Binned (unconstrained)
[5] = constrained fit, read-out: sGC_HEK_LCMS cEC50 (nM) Binned (constrained)

SMILES: Fc1ccccc1Cn1nc(-c2ncc(F)c(OCC(F)(F)c3ccccn3)n2)cc1-c1ccon1 [Compound I-17]
EC50 [1, 4]: 100 to 1000 nM

SMILES: Nc1nc(-c2nn(Cc3ccccc3F)c3ncccc23)ncc1C1CC1 [BAY 41-2272]
effect on mean arterial pressure [2]: without significant effect on mean arterial pressure
pulmonary vasodilation [2]: dose dependent pulmonary vasodilation
transpulmonary cGMP release [2]: increased transpulmonary cGMP release

SMILES: O=C1O/C(=C\c2nc(-c3cc(-c4ccon4)n(Cc4ccccc4F)n3)ncc2F)c2ccccc21 [Compound I-26]
EC50 [1, 4]: 1000 to 5000 nM

SMILES: O=C(COc1nc(-c2cc(-c3ccon3)n(Cc3ccccc3F)n2)ncc1F)N1CCOCC1 [Compound I-11]
EC50 [1, 5]: 1000 to 5000 nM

SMILES: O=S(=O)(c1ccccc1)c1nc(-c2cc(-c3ccon3)n(Cc3ccccc3F)n2)ncc1F [Compound I-38]
EC50 (sGC enzyme): ≤ 100 nM

SMILES: O=C(O)CCCCN(CCc1ccccc1OCc1ccc(CCc2ccccc2)cc1)Cc1ccc(C(=O)O)cc1 [BAY 58-2667]
pulmonary vasodilation and transpulmonary cGMP release after ODQ treatment ([2]; after intravenous ODQ): greatly enhanced
effect on mean arterial pressure [2]: without significant effect on mean arterial pressure
pulmonary vasodilation [2]: dose dependent pulmonary vasodilation
transpulmonary cGMP release [2]: increased transpulmonary cGMP release
systemic arterial oxygenation [2]: increased systemic arterial oxygenation

SMILES: Fc1ccccc1Cn1nc(-c2ncc(F)c(OC3CCOC3)n2)cc1-c1ccon1 (centres unmarked) [Compound I-15]
EC50 [1, 4]: 100 to 1000 nM

SMILES: CS(=O)(=O)N1CCCC(Oc2nc(-c3cc(-c4ccon4)n(Cc4ccccc4F)n3)ncc2F)C1 (centres unmarked) [Compound I-21]
EC50 [1, 4]: 1000 to 5000 nM

SMILES: COC(=O)c1ccccc1C#Cc1nc(-c2cc(-c3ccon3)n(Cc3ccccc3F)n2)ncc1F [Compound I-23]
EC50 [1, 4]: 1000 to 5000 nM

SMILES: O=C(O)c1ccccc1C(=O)Cc1nc(-c2cc(-c3ccon3)n(Cc3ccccc3F)n2)ncc1F [Compound I-27]
EC50 [1, 4]: 1000 to 5000 nM

SMILES: Nc1nc(-c2nn(Cc3ccccc3F)c3ncccc23)nc(N)c1N1CCOCC1 [BAY 41-8543]
pulmonary vasodilation induced by iNO after inhaling microparticles ([2]; combination with inhaled nitric oxide): augmented
effect on mean arterial pressure [2]: without significant effect on mean arterial pressure
pulmonary vasodilation [2]: dose dependent pulmonary vasodilation
transpulmonary cGMP release [2]: increased transpulmonary cGMP release
systemic arterial oxygenation [2]: increased systemic arterial oxygenation

SMILES: CC(C)(C)OC(=O)N1CCCC1COc1nc(-c2cc(-c3ccon3)n(Cc3ccccc3F)n2)ncc1F (centres unmarked) [Compound I-4]
EC50 [1, 4]: 1000 to 5000 nM

SMILES: Fc1ccccc1Cn1nc(-c2ncc(F)c(OC3CCNCC3)n2)cc1-c1ccon1 [Compound I-13]
EC50 [1, 4]: ≥ 5000 nM

Now from value to compound:

EC50 [1, 4]: 1000 to 5000 nM
SMILES: COC(=O)C1(Oc2nc(-c3cc(-c4ccon4)n(Cc4ccccc4F)n3)ncc2F)CC1 [Compound I-8]

EC50 [1, 5]: 1000 to 5000 nM
SMILES: CS(=O)(=O)CCCOc1nc(-c2cc(-c3ccon3)n(Cc3ccccc3F)n2)ncc1F [Compound I-18]

EC50 (sGC enzyme): > 1000 nM
SMILES: OCCSc1nc(-c2cc(-c3ccon3)n(Cc3ccccc3F)n2)ncc1F [Compound I-34]

EC50 (sGC enzyme): > 1000 nM
SMILES: OCCSc1cnc(-c2cc(-c3ccon3)n(Cc3ccccc3F)n2)nc1SCCO [Compound I-35]

EC50 (sGC enzyme): 100 to 1000 nM
SMILES: Fc1ccccc1Cn1nc(-c2ncc(F)c(Sc3ccccc3)n2)cc1-c1ccon1 [Compound I-37]

EC50 [1, 5]: 1000 to 5000 nM
SMILES: Fc1ccccc1Cn1nc(-c2ncc(F)c(OC3CCNC3)n2)cc1-c1ccon1 (centres unmarked) [Compound I-5]

EC50 [1, 4]: 1000 to 5000 nM
SMILES: Fc1ccccc1Cn1nc(-c2ncc(F)c(OC3CNC3)n2)cc1-c1ccon1 [Compound I-14]

EC50 [1, 4]: 1000 to 5000 nM
SMILES: COC(=O)COc1nc(-c2cc(-c3ccon3)n(Cc3ccccc3F)n2)ncc1F [Compound I-7]

EC50 [3]: ≥ 5000 nM
SMILES: O=C(O)COc1nc(-c2cc(-c3ccon3)n(Cc3ccccc3F)n2)ncc1F [Compound I-6]
